Data from EP3985010A1, “SPIROCYCLIC INHIBITORS OF HEPATITIS B VIRUS” (priority 2020, dated 2022).

Each molecule was assayed on HBV (assay: Anti-HBV activity in vitro: quantification of extracellular HBV DNA by direct qPCR in HepAD38 cells). Details: Hepatitis B virus, doxycycline-free medium, 96 hours at 37°C, 8-point dose-response curve, read-out: HBV inh EC50.
Assay type: cell-based
Description: HepAD38 cell line (Ladner et al., Antimicrob Agents Chemother, 1997, 41, 1715-20) was used for HBV inhibition assays. HepAD38 is a subclone, derived from hepatoblastoma cell line HepG2 (ATCC® Number: HB-8065™), that expresses HBV genome under the transcriptional control of a tetracycline-responsive promoter in a TET-OFF system: addition of doxycycline, an antibiotic belonging to the class of tetracycline, suppresses HBV replication, while its removal switches on the process allowing HBV viral particles release in the cell supernatant. HepAD38 cell line is maintained in DMEM/F12, supplemented with 10% of fetal bovine serum, 1% of glutamine, 1% of penicillin/streptomycin, 0.4 mg/ml G418 and 0,3 ug/ml tetracycline. For the HBV inhibition assay, doxycycline-free medium is used in order to allow virion production.
HBV inhibition activity in vitro was performed in 96 multiwell plates. During the initial (primary) screening, compounds were first tested in triplicates at concentrations of 0.02 µM, 0.1µM, 0.5µM and 1µM. For selected compounds, an 8-point dose-response curve was obtained using 1:2 serial dilutions (starting from 0.01µM, 0.1µM, 0.4µM or 5 µM, depending on the degree of inhibition observed during the primary screening). From the dose-response curves, half maximal effective concentration (EC50) could be calculated (see also below).
In more detail, compounds - typically dissolved in DMSO stock solutions - were diluted to 2x the final desired concentration in 100 µl of the above medium (without doxycycline) and plated in three replicates in the 96-well plates.
Simultaneously, HepAD38 cells - extensively pre-washed in doxycycline-free medium in order to induce HBV production - were suspended at 2^∗10^4 cells in 100 µl of doxycycline-free medium and added to each well of the plate, to yield a final assay volume of 200 µl DMSO - used for stock solutions and compounds dilutions - which was always present in the assays at a final concentration of 0.5%.
Plates were then incubated 96 hours at 37°C and then subjected to cell viability assays and extracellular HBV quantification, in order to evaluate both the cytotoxic potential and the antiviral activity of compounds. Cytotoxicity was assessed by a commercial fluorescence assay that measures the metabolic activity of cells, directly related to cell viability (Cell Titer Blue, Promega). Anti-HBV activity was evaluated by quantification of extracellular HBV DNA with direct qPCR. In particular, supernatant was collected and centrifuged for cell debris clarification, viral DNA was extracted from virions by addition of lysis buffer (1 mM 1,4-dithiothreitol, 0.2% sodium dodecyl sulphate) and incubated at 95°C for 10 min. Samples were then diluted 1:40 and real time PCR amplification was performed with SYBR green assay (Power SYBR™ Green PCR Master Mix-Thermo Fisher Scientific) and specific HBV primer (HBV-DF:5'-[…]-3' (SEQ ID No. 1), HBV-DR:5'-[…]-3' (SEQ ID No. 2)).
Antiviral activity data for each compound are reported as EC50 value (see Table 1 legend). Excel and Graphpad Prism programs are typically used for data elaboration and EC50 calculation.
Molecule `C[C@H](NC(=O)C(=O)N1CC2(COc3c(cn(C)c3C(=O)Nc3ccc(F)c(Cl)c3)S(=O)(=O)N2)C1)C(F)(F)F` [Example E16, (S)-N-(3-chloro-4-fluorophenyl)-7'-methyl-1-(2-oxo-2-((1,1,1-trifluoropropan-2-yl)amino)acetyl)-2'H,4'H,7'H-spiro[azetidine-3,3'-pyrrolo[3,4-b][1,4,5]oxathiazepine]-6'-carboxamide 1',1'-dioxide] has an EC50 of less than 500 nM. Work on `Cn1cc2c(c1C(=O)Nc1ccc(F)c(C(F)F)c1)OCC1(CN(C(=O)C(=O)NC3CC3)C1)NS2(=O)=O` [Example E19, 1-(2-(cyclopropylamino)-2-oxoacetyl)-N-(3-(difluoromethyl)-4-fluorophenyl)-7'-methyl-2'H,4'H,7'H-spiro[azetidine-3,3'-pyrrolo[3,4-b][1,4,5]oxathiazepine]-6'-carboxamide 1',1'-dioxide] yielded an EC50 of less than 500 nM. With `C[C@H](NC(=O)C(=O)N1CC[C@]2(COc3c(cn(C)c3C(=O)Nc3ccc(F)c(C(F)F)c3)S(=O)(=O)N2)C1)C(F)(F)F` [Example E23, (R)-N-(3-(difluoromethyl)-4-fluorophenyl)-7'-methyl-1-(2-oxo-2-(((S)-1,1,1-trifluoropropan-2-yl)amino)acetyl)-2'H,4'H,7'H-spiro[pyrrolidine-3,3'-pyrrolo[3,4-b][1,4,5]oxathiazepine]-6'-carboxamide 1',1'-dioxide] the EC50 was less than 500 nM. `Cn1cc2c(c1C(=O)Nc1ccc(F)c(C(F)F)c1)OCC1(CCN(C(=O)C(=O)NC(C)(C)C(F)(F)F)CC1)NS2(=O)=O` [Example E15, N-(3-(difluoromethyl)-4-fluorophenyl)-7'-methyl-1-(2-oxo-2-((1,1,1-trifluoro-2-methylpropan-2-yl)amino)acetyl)-2'H,4'H,7'H-spiro[piperidine-4,3'-pyrrolo[3,4-b][1,4,5]oxathiazepine]-6'-carboxamide 1',1'-dioxide] showed an EC50 of less than 500 nM. In the case of `Cn1cc2c(c1C(=O)Nc1ccc(F)c(Cl)c1)OC[C@@]1(CCN(C(=O)C(=O)NC(C)(C)C(F)(F)F)C1)NS2(=O)=O` [Example E26, (S)-N-(3-chloro-4-fluorophenyl)-7'-methyl-1-(2-oxo-2-((1,1,1-trifluoro-2-methylpropan-2-yl)amino)acetyl)-2'H,4'H,7'H-spiro[pyrrolidine-3,3'-pyrrolo[3,4-b][1,4,5]oxathiazepine]-6'-carboxamide 1',1'-dioxide], the EC50 is reported as less than 500 nM. `C[C@@H](NC(=O)C(=O)N1CC[C@@]2(COc3c(c(Cl)n(C)c3C(=O)Nc3ccc(F)c(C(F)F)c3)S(=O)(=O)N2)C1)C(F)(F)F` [Example E29, (S)-8'-chloro-N-(3-(difluoromethyl)-4-fluorophenyl)-7'-methyl-1-(2-oxo-2-(((R)-1,1,1-trifluoropropan-2-yl)amino)acetyl)-2'H,4'H,7'H-spiro[pyrrolidine-3,3'-pyrrolo[3,4-b][1,4,5]oxathiazepine]-6'-carboxamide 1',1'-dioxide] gave an EC50 of less than 500 nM. Molecule `C[C@@H](NC(=O)C(=O)N1CC[C@]2(COc3c(cn(C)c3C(=O)Nc3ccc(F)c(C(F)F)c3)S(=O)(=O)N2)C1)C(F)(F)F` [Example E6, (R)-N-(3-(difluoromethyl)-4-fluorophenyl)-7'-methyl-1-(2-oxo-2-(((R)-1,1,1-trifluoropropan-2-yl)amino)acetyl)-2'H,4'H,7'H-spiro[pyrrolidine-3,3'-pyrrolo[3,4-b][1,4,5]oxathiazepine]-6'-carboxamide 1',1'-dioxide] has an EC50 of less than 500 nM. For `C[C@@H](NC(=O)C(=O)N1CC2(COc3c(c(Cl)n(C)c3C(=O)Nc3ccc(F)c(Cl)c3)S(=O)(=O)N2)C1)C(F)(F)F` [Example E31, (R)-8'-chloro-N-(3-chloro-4-fluorophenyl)-7'-methyl-1-(2-oxo-2-((1,1,1-trifluoropropan-2-yl)amino)acetyl)-2'H,4'H,7'H-spiro[azetidine-3,3'-pyrrolo[3,4-b][1,4,5]oxathiazepine]-6'-carboxamide 1',1'-dioxide], the EC50 was less than 500 nM. `Cn1cc2c(c1C(=O)Nc1ccc(F)c(C(F)F)c1)OC[C@@]1(CCN(C(=O)C(=O)NC(C)(C)C(F)(F)F)C1)NS2(=O)=O` [Example E28, (S)-N-(3-(difluoromethyl)-4-fluorophenyl)-7'-methyl-1-(2-oxo-2-((1,1,1-trifluoro-2-methylpropan-2-yl)amino)acetyl)-2'H,4'H,7'H-spiro[pyrrolidine-3,3'-pyrrolo[3,4-b][1,4,5]oxathiazepine]-6'-carboxamide 1',1'-dioxide] showed an EC50 of less than 500 nM. `C[C@@H](NC(=O)C(=O)N1CCC2(COc3c(cn(C)c3C(=O)Nc3ccc(F)c(F)c3)S(=O)(=O)N2)C1)C(F)(F)F` (stereo partly drawn) [Example E1, N-(3,4-difluorophenyl)-7'-methyl-1-(2-oxo-2-(((R)-1,1,1-trifluoropropan-2-yl)amino)acetyl)-2'H,4'H,7'H-spiro[pyrrolidine-3,3'-pyrrolo[3,4-b][1,4,5]oxathiazepine]-6'-carboxamide 1',1'-dioxide] was tested, and the EC50 was less than 500 nM. In the case of `C[C@@H](NC(=O)C(=O)N1CC[C@]2(COc3c(cn(C)c3C(=O)Nc3ccc(F)c(Cl)c3)S(=O)(=O)N2)C1)C(F)(F)F` [Example E4, (R)-N-(3-chloro-4-fluorophenyl)-7'-methyl-1-(2-oxo-2-(((R)-1,1,1-trifluoropropan-2-yl)amino)acetyl)-2'H,4'H,7'H-spiro[pyrrolidine-3,3'-pyrrolo[3,4-b][1,4,5]oxathiazepine]-6'-carboxamide 1',1'-dioxide], the EC50 is reported as less than 500 nM. With `C[C@@H](NC(=O)C(=O)N1CC[C@@]2(COc3c(cn(C)c3C(=O)Nc3ccc(F)c(C(F)F)c3)S(=O)(=O)N2)C1)C(F)(F)F` [Example E11, (S)-N-(3-(difluoromethyl)-4-fluorophenyl)-7'-methyl-1-(2-oxo-2-(((R)-1,1,1-trifluoropropan-2-yl)amino)acetyl)-2'H,4'H,7'H-spiro[pyrrolidine-3,3'-pyrrolo[3,4-b][1,4,5]oxathiazepine]-6'-carboxamide 1',1'-dioxide] the EC50 was less than 500 nM. For `Cn1cc2c(c1C(=O)Nc1ccc(F)c(Cl)c1)OC[C@]1(CCN(C(=O)C(=O)NC(C)(C)C(F)(F)F)C1)NS2(=O)=O` [Example E21, (R)-N-(3-chloro-4-fluorophenyl)-7'-methyl-1-(2-oxo-2-((1,1,1-trifluoro-2-methylpropan-2-yl)amino)acetyl)-2'H,4'H,7'H-spiro[pyrrolidine-3,3'-pyrrolo[3,4-b][1,4,5]oxathiazepine]-6'-carboxamide 1',1'-dioxide], the EC50 was less than 500 nM. Molecule `C[C@@H](NC(=O)C(=O)N1CC2(COc3c(cn(C)c3C(=O)Nc3ccc(F)c(Cl)c3)S(=O)(=O)N2)C1)C(F)(F)F` [Example E9, (R)-N-(3-chloro-4-fluorophenyl)-7'-methyl-1-(2-oxo-2-((1,1,1-trifluoropropan-2-yl)amino)acetyl)-2'H,4'H,7'H-spiro[azetidine-3,3'-pyrrolo[3,4-b][1,4,5]oxathiazepine]-6'-carboxamide 1',1'-dioxide] has an EC50 of less than 500 nM. Molecule `C[C@@H](NC(=O)C(=O)N1CC[C@]2(COc3c(c(Cl)n(C)c3C(=O)Nc3ccc(F)c(C(F)F)c3)S(=O)(=O)N2)C1)C(F)(F)F` [Example E34, (R)-8'-chloro-N-(3-(difluoromethyl)-4-fluorophenyl)-7'-methyl-1-(2-oxo-2-(((R)-1,1,1-trifluoropropan-2-yl)amino)acetyl)-2'H,4'H,7'H-spiro[pyrrolidine-3,3'-pyrrolo[3,4-b][1,4,5]oxathiazepine]-6'-carboxamide 1',1'-dioxide] has an EC50 of less than 500 nM.
